Laboratory results as given in the kinase profiling compilation of Christmann-Franck et al. (2016).

Tests used:
Assay in all cases: KINOMEscan competition binding
Conditions in all cases: compound 10.0 µM
RPS6KA5 KD2 (human) = RPS6KA5 KD2 (human) (UniProt O75582)
PRKCH (human) = PRKCH (human) (UniProt P24723)
ACVR2A (human) = ACVR2A (human) (UniProt P27037)
EPHB2 (human) = EPHB2 (human) (UniProt P29323)
PRKD3 (human) = PRKD3 (human) (UniProt O94806)
CDC42BPA (human) = CDC42BPA (human) (UniProt Q5VT25)
FYN (human) = FYN (human) (UniProt P06241)
MAP2K1 (human) = MAP2K1 (human) (UniProt Q02750)
CHUK (human) = CHUK (human) (UniProt O15111)
PIM3 (human) = PIM3 (human) (UniProt Q86V86)
CHEK2 (human) = CHEK2 (human) (UniProt O96017)
CAMK2B (human) = CAMK2B (human) (UniProt Q13554)
TEK (human) = TEK (human) (UniProt Q02763)
PLK1 (human) = PLK1 (human) (UniProt P53350)
PAK7 (human) = PAK7 (human) (UniProt Q9P286)
RIOK3 (human) = RIOK3 (human) (UniProt O14730)
MAP4K3 (human) = MAP4K3 (human) (UniProt Q8IVH8)
CaMK1 (human) = CaMK1 (human) (UniProt Q14012)
CSNK1E (human) = CSNK1E (human) (UniProt P49674)
CDK5 (human) = CDK5 (human) (UniProt Q00535)
PLK3 (human) = PLK3 (human) (UniProt Q9H4B4)
PTK2 (human) = PTK2 (human) (UniProt Q05397)
BMPR1A (human) = BMPR1A (human) (UniProt P36894)
TLK1 (human) = TLK1 (human) (UniProt Q9UKI8)
PDGFRB (human) = PDGFRB (human) (UniProt P09619)
MARK1 (human) = MARK1 (human) (UniProt Q9P0L2)
SRPK1 (human) = SRPK1 (human) (UniProt Q96SB4)
CLK4 (human) = CLK4 (human) (UniProt Q9HAZ1)
SGK110 (human) = SGK110 (human) (UniProt P0C264)
[1] = target: JAK2 JH1 catalytic (human) (UniProt O60674)
TESK1 (human) = TESK1 (human) (UniProt Q15569)
MST4 (human) = MST4 (human) (UniProt Q9P289)
ERBB2 (human) = ERBB2 (human) (UniProt P04626)
MAP2K4 (human) = MAP2K4 (human) (UniProt P45985)
[2] = system: KIT (human), P10721 [V559D]
ADCK3 (human) = ADCK3 (human) (UniProt Q8NI60)
RPS6KA6 KD2 (human) = RPS6KA6 KD2 (human) (UniProt Q9UK32)
DMPK (human) = DMPK (human) (UniProt Q09013)
IKBKE (human) = IKBKE (human) (UniProt Q14164)
STK36 (human) = STK36 (human) (UniProt Q9NRP7)

Chain of PLK1 (human) (P53350 whole entry, looked up): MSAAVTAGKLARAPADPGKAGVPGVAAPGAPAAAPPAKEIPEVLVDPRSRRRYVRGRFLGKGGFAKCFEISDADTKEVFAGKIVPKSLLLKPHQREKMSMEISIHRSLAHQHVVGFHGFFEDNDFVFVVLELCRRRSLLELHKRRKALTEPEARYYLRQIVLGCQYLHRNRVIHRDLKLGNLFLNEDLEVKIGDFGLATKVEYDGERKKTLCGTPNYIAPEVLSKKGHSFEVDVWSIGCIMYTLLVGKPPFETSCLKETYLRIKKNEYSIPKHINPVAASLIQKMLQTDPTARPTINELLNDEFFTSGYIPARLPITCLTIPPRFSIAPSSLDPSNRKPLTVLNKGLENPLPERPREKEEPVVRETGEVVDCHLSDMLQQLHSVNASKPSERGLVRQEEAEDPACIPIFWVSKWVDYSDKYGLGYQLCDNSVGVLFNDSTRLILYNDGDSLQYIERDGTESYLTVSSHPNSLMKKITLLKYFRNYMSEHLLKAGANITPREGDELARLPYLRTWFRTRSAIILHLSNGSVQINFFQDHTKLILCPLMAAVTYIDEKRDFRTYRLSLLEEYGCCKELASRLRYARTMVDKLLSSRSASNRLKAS
Chain of MAP2K4 (human) (P45985 whole entry, looked up): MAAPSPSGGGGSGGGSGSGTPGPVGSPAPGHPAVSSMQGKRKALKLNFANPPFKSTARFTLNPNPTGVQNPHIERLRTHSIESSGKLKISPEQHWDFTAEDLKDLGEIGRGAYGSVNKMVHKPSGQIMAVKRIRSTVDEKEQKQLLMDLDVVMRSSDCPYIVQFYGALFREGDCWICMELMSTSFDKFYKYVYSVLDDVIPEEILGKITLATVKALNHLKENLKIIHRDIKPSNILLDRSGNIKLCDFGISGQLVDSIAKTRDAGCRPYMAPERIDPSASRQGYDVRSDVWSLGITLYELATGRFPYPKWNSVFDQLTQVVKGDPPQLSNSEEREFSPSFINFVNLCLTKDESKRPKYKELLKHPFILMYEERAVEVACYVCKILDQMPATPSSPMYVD
Chain of SGK110 (human) (P0C264 whole entry, looked up): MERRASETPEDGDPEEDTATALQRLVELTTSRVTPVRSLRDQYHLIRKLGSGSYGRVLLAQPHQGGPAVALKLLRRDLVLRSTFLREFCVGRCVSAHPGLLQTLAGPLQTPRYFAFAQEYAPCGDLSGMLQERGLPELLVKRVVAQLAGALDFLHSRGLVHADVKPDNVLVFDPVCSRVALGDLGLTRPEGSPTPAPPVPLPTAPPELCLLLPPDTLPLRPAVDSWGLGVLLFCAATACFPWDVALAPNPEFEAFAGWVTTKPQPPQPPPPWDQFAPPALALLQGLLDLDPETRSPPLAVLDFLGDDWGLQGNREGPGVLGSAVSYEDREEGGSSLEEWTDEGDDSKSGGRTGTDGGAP
Chain of EPHB2 (human) (P29323 whole entry, looked up): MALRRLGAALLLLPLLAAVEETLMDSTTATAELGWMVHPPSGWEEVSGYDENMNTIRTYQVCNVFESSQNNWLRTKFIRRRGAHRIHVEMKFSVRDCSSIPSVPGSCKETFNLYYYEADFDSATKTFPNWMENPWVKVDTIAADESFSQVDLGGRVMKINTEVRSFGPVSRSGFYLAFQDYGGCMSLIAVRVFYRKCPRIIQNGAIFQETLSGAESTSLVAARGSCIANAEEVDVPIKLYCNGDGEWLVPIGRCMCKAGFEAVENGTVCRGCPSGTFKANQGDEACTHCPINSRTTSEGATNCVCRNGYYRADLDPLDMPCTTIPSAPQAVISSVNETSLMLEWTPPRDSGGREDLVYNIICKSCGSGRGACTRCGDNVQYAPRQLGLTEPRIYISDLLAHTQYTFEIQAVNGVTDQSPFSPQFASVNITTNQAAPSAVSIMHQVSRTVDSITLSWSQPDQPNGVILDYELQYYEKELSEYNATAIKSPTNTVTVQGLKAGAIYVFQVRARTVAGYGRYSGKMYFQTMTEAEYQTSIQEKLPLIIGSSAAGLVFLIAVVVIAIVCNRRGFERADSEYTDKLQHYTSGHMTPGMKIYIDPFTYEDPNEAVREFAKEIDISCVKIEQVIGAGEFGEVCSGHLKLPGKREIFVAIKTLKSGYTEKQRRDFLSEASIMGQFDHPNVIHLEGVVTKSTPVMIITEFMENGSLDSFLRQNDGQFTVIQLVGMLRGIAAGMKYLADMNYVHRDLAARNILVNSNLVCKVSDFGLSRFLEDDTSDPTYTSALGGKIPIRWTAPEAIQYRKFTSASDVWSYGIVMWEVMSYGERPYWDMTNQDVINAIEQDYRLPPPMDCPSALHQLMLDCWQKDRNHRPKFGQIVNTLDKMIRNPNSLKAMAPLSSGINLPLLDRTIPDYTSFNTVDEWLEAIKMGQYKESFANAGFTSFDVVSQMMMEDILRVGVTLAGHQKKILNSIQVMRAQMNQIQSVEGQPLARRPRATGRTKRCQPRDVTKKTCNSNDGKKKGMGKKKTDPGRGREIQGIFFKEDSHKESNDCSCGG
Chain of CAMK2B (human) (Q13554 whole entry, looked up): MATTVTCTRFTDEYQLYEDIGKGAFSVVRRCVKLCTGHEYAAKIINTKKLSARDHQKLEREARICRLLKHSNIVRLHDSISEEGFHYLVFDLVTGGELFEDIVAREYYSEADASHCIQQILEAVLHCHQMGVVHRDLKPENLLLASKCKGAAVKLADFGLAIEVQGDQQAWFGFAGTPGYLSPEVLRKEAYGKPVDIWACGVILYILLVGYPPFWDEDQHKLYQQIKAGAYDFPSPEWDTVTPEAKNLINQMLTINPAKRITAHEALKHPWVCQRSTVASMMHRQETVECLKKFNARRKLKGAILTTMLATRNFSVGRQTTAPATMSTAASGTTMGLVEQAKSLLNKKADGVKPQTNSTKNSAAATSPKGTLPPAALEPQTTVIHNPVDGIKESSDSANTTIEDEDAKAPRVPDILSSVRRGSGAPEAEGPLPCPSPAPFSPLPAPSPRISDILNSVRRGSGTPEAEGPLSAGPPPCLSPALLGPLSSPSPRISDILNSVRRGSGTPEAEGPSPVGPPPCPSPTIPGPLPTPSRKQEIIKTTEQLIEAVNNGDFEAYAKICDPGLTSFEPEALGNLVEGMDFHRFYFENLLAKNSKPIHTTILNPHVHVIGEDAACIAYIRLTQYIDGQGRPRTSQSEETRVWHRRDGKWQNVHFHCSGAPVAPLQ
Chain of MAP4K3 (human) (Q8IVH8 whole entry, looked up): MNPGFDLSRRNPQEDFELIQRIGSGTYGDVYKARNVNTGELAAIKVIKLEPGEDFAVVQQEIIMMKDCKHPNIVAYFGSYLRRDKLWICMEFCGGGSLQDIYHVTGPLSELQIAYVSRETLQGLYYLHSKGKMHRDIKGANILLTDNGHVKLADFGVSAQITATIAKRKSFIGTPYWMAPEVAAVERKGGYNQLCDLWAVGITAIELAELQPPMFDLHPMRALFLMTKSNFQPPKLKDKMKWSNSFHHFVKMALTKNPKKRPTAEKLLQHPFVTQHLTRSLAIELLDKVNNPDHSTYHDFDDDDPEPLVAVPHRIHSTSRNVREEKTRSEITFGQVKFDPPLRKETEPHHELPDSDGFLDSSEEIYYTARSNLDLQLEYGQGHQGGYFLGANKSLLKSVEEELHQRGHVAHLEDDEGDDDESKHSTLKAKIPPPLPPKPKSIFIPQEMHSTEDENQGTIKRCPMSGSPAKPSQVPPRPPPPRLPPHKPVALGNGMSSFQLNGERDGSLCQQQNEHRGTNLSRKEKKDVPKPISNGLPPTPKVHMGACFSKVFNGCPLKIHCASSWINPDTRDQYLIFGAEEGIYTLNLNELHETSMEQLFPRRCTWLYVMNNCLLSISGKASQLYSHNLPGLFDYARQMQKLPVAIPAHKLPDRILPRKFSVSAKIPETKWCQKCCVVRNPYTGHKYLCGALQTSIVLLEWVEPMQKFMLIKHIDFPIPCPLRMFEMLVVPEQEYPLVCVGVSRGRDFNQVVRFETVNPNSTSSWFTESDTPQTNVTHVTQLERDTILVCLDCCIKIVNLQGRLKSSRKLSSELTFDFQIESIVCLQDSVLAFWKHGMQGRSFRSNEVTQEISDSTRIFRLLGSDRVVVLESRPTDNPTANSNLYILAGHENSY
Chain of IKBKE (human) (Q14164 whole entry, looked up): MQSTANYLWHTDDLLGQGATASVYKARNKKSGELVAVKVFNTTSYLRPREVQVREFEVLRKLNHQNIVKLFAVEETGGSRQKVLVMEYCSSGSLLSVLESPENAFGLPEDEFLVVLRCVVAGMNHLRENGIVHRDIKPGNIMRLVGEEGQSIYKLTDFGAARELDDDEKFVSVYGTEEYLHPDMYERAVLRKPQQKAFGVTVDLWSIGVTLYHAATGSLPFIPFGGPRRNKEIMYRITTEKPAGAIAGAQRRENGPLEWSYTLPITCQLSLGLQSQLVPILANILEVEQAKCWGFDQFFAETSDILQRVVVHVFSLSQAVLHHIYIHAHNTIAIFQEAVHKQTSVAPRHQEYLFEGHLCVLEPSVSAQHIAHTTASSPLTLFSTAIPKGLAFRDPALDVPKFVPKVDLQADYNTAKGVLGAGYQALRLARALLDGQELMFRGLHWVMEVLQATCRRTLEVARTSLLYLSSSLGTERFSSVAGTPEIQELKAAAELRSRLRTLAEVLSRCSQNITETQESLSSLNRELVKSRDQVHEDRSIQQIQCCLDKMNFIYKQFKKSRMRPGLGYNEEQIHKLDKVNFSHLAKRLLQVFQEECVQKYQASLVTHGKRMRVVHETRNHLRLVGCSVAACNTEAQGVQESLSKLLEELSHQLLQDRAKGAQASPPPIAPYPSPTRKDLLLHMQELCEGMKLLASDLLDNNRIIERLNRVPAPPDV

Structure (SMILES)	kinase still bound, per cent of control (RPS6KA5 KD2 (human)) [%]	kinase still bound, per cent of control (PRKCH (human)) [%]	kinase still bound, per cent of control (EPHB2 (human)) [%]	kinase still bound, per cent of control (PRKD3 (human)) [%]	kinase still bound, per cent of control (CDC42BPA (human)) [%]	kinase still bound, per cent of control (FYN (human)) [%]	kinase still bound, per cent of control (MAP2K1 (human)) [%]	kinase still bound, per cent of control (CHUK (human)) [%]	kinase still bound, per cent of control (PIM3 (human)) [%]	kinase still bound, per cent of control (CHEK2 (human)) [%]	kinase still bound, per cent of control (TEK (human)) [%]	kinase still bound, per cent of control (PAK7 (human)) [%]	kinase still bound, per cent of control (RIOK3 (human)) [%]	kinase still bound, per cent of control (MAP4K3 (human)) [%]	kinase still bound, per cent of control (CaMK1 (human)) [%]	kinase still bound, per cent of control (CSNK1E (human)) [%]	kinase still bound, per cent of control (CDK5 (human)) [%]	kinase still bound, per cent of control (PLK3 (human)) [%]	kinase still bound, per cent of control (PTK2 (human)) [%]	kinase still bound, per cent of control (BMPR1A (human)) [%]	further results
Cc1ccc2nc(NCCN)c3ncc(C)n3c2c1	85	94	100	41	85	100	100	86	92	97	100	100	100	80	98	58	100	94	97	32	kinase still bound, per cent of control (ACVR2A (human)): 92%; kinase still bound, per cent of control (CAMK2B (human)): 73%; kinase still bound, per cent of control (PLK1 (human)): 100%; kinase still bound, per cent of control (TLK1 (human)): 82%; kinase still bound, per cent of control (PDGFRB (human)): 57%; kinase still bound, per cent of control (MARK1 (human)): 100%; kinase still bound, per cent of control (SRPK1 (human)): 100%; kinase still bound, per cent of control (CLK4 (human)): 53%; kinase still bound, per cent of control (SGK110 (human)): 100%; kinase still bound, per cent of control [1]: 100%; kinase still bound, per cent of control (TESK1 (human)): 79%; kinase still bound, per cent of control (MST4 (human)): 95%; kinase still bound, per cent of control (ERBB2 (human)): 100%; kinase still bound, per cent of control (MAP2K4 (human)): 100%; kinase still bound, per cent of control [2]: 23%; kinase still bound, per cent of control (ADCK3 (human)): 61%; kinase still bound, per cent of control (RPS6KA6 KD2 (human)): 40%; kinase still bound, per cent of control (DMPK (human)): 100%; kinase still bound, per cent of control (IKBKE (human)): 100%
COc1cc(N2CCN(C)CC2)ccc1Nc1nc(N)c(C(=O)c2c(Cl)cccc2Cl)s1	96	93	100	70	100	89	100	58	100	100	88	63	100	100	0.75	56	88	88	62	100	kinase still bound, per cent of control (STK36 (human)): 100%; kinase still bound, per cent of control (CAMK2B (human)): 20%; kinase still bound, per cent of control (PLK1 (human)): 72%; kinase still bound, per cent of control (TLK1 (human)): 86%; kinase still bound, per cent of control (PDGFRB (human)): 100%; kinase still bound, per cent of control (SRPK1 (human)): 100%; kinase still bound, per cent of control (CLK4 (human)): 50%; kinase still bound, per cent of control (SGK110 (human)): 100%; kinase still bound, per cent of control [1]: 80%; kinase still bound, per cent of control (TESK1 (human)): 100%; kinase still bound, per cent of control (MST4 (human)): 100%; kinase still bound, per cent of control (ERBB2 (human)): 100%; kinase still bound, per cent of control (MAP2K4 (human)): 70%; kinase still bound, per cent of control [2]: 100%; kinase still bound, per cent of control (ADCK3 (human)): 93%; kinase still bound, per cent of control (RPS6KA6 KD2 (human)): 28%; kinase still bound, per cent of control (DMPK (human)): 50%; kinase still bound, per cent of control (IKBKE (human)): 87%
Cn1c(=O)n(-c2ccc(C(C)(C)C#N)cc2)c2c3cc(-c4cnc5ccccc5c4)ccc3ncc21	100	100	100	100	100	100	100	100	100	100	100	100	100	100	100	100	100	100	100	100	kinase still bound, per cent of control (ACVR2A (human)): 100%; kinase still bound, per cent of control (STK36 (human)): 100%; kinase still bound, per cent of control (CAMK2B (human)): 100%; kinase still bound, per cent of control (PLK1 (human)): 100%; kinase still bound, per cent of control (TLK1 (human)): 100%; kinase still bound, per cent of control (MARK1 (human)): 100%; kinase still bound, per cent of control (SRPK1 (human)): 100%; kinase still bound, per cent of control (CLK4 (human)): 22%; kinase still bound, per cent of control (SGK110 (human)): 100%; kinase still bound, per cent of control [1]: 20%; kinase still bound, per cent of control (TESK1 (human)): 100%; kinase still bound, per cent of control (MST4 (human)): 100%; kinase still bound, per cent of control (ERBB2 (human)): 100%; kinase still bound, per cent of control (MAP2K4 (human)): 100%; kinase still bound, per cent of control [2]: 100%; kinase still bound, per cent of control (ADCK3 (human)): 100%; kinase still bound, per cent of control (RPS6KA6 KD2 (human)): 100%; kinase still bound, per cent of control (DMPK (human)): 100%; kinase still bound, per cent of control (IKBKE (human)): 100%
CC[C@@H]1C(=O)N(C)c2cnc(Nc3ccc(C(=O)NC4CCN(C)CC4)cc3OC)nc2N1C1CCCC1	14	100	100	10	100	100	100	100	100	100	100	100	100	100	100	100	100	0	2.4	100	kinase still bound, per cent of control (ACVR2A (human)): 100%; kinase still bound, per cent of control (STK36 (human)): 100%; kinase still bound, per cent of control (TLK1 (human)): 100%; kinase still bound, per cent of control (PDGFRB (human)): 100%; kinase still bound, per cent of control (MARK1 (human)): 100%; kinase still bound, per cent of control (SRPK1 (human)): 100%; kinase still bound, per cent of control (CLK4 (human)): 100%; kinase still bound, per cent of control (SGK110 (human)): 100%; kinase still bound, per cent of control [1]: 100%; kinase still bound, per cent of control (TESK1 (human)): 100%; kinase still bound, per cent of control (MST4 (human)): 100%; kinase still bound, per cent of control (ERBB2 (human)): 100%; kinase still bound, per cent of control (MAP2K4 (human)): 100%; kinase still bound, per cent of control [2]: 100%; kinase still bound, per cent of control (ADCK3 (human)): 100%; kinase still bound, per cent of control (RPS6KA6 KD2 (human)): 8.3%; kinase still bound, per cent of control (DMPK (human)): 100%; kinase still bound, per cent of control (IKBKE (human)): 100%
